Laboratory results: patent US12005068B2, “Formulation including doxycycline hyclate and method for administering the same” (priority 2017, dated 2024)

What was measured:
Type in all cases: in vivo
[1] = tested on: chemotherapy induced peripheral neuropathy; assay: Example 1: human subject with chemotherapy induced peripheral neuropathy, Treatment-Induced Neuropathy Assessment Scale and reported symptoms; settings: patient history before the disclosed treatment
Source text: A patient complained of a tingling and burning sensation in their hands and feet that began shortly after they commenced chemotherapy. The patient had been previously diagnosed with primary peritoneal cervical cancer. While it was recommended that the patient undergo chemotherapy treatment for 18 weeks, the patient was unable to tolerate the side effects of the treatment after 11 weeks and ceased the treatment sessions. […] The patient experienced the same side effects again and sought help to alleviate their pain.
Upon physical examination by a practicing physician their gait was abnormal. Some of their symptoms included: • (a) The patient had poor coordination. In particular, when the patient would stop looking at their feet, they would lose all sense of proprioception (i.e., their sense of the relative position of the body and strength of effort being employed in movement) was lost. The patient thus used a cane as they had trouble with stability. • (b) The patient's sense of touch was poor. For example, the patient could not distinguish different textures as everything felt like silk to them. • (c) The patient's sense of temperature was also poor. […] • (d) There was an altered temperature sensation. They were hyper sensitized to slight changes in temperature. […] They could not write, hold a phone, pick up change, buckle themself in a seat, or dress themself. In the absence of a stimulus, the patient felt the tingling, burning sensations in their hands and feet. • (e) The patient's sensations would be exacerbated upon the introduction of a non-noxious stimulus.
Based on the above, the patient was diagnosed with chemotherapy induced peripheral neuropathy. […] Some of the attempted medications were PERCOSET, GABAPENTIN, TYLENOL, ADVIL, LIDOCAINE, and CAPSAICIN. Numerous other over-the-counter medications were tried. Other attempted treatments included acupuncture.
In an embodiment of the presently disclosed treatment, a formulation of topical doxycycline hyclate suspension at a concentration of 400 mg/g. The prescribed administration included applying the formulation to the patient's hands and feet 2-3 times daily as needed for the pain. Each dose was 2 ml per foot, per hand, and per leg. Over the course of at least 18 months, the patient used the formulation every day during the remainder of the patient's second regiment of chemotherapy. […] In particular, immediately after applying the topical doxycycline for the very first time, the patient found relief in the tingling, burning feeling in the hands and feet. […] They were able to pick up change.
Quantitatively, data was collected for at least 7 months on a “Treatment-Induced Neuropathy Assessment Scale” as shown in Table 1 below. The scale was proven in the scientific literature to be an effective tool to quantify change in symptoms presented by patients with peripheral neuropathy. The patient needed to assess their pain from a scale of 0 (non-existent) to 10 (unbearable pain). Throughout all the categories, the patient's pain went down. In some categories the pain was diminished altogether.

idiopathic neuropathy = assay: Example 7: human subject with idiopathic neuropathy; settings: patient statement
Description: The following in vivo study of a human subject diagnosed with idiopathic neuropathy.
A patient presented with idiopathic ice-cold burning sensations on the lateral surface area of the right shin/calf. The pain began 6 years ago and has stayed constant.
The patient then began a new treatment course to alleviate the pain. This treatment is the presently disclosed novel formulation of topical doxycycline hyclate suspension at a concentration of 400 mg/g. Each dose was 4m1 to the affected right shin. They applied it topically to the affected areas when they were feeling the pain. They began applying it only once a day for 2 weeks before bed.

multiple sclerosis = assay: Example 5: human subject with multiple sclerosis, leg pain triggered by AVONEX injection; settings: patient history
Source text: The following in vivo study of a human subject diagnosed with multiple sclerosis.
A patient presented with excruciating pain in their quadriceps that extended down to their calves. The pain was triggered by the weekly injection of AVONEX (interferon beta-1a) the patient was taking in order to manage their multiple sclerosis. They could not sleep due to the pain.
The patient then began a new treatment course to alleviate the pain. This treatment is a novel formulation of topical doxycycline hyclate suspension at a concentration of 400 mg/g. Each dose was 4 ml per leg and 2 ml per arm/hands. They applied it to the affected areas when they were feeling the pain. They also applied it at work when they would get pains from handling complex machines such as nail guns.

osteoarthritis = assay: Example 6: human subject with osteoarthritis in both knees; settings: patient history; side effects put them in a worse state
Description: The following in vivo study of a human subject diagnosed with osteoarthritis.
A patient presented with osteoarthritis in both knees due to a previous trauma years ago in their life. Their knees are in a constant state of pain and inflammation. They also have arthritis in the toe joints and shoulder.
The patient then began a new treatment course to alleviate the pain. This treatment is a novel formulation of topical doxycycline hyclate suspension at a concentration of 400 mg/g. Each dose was 2 ml per knee. They applied it to the affected areas when they were feeling the pain. By the next day the patient feels minimal pain. They apply 1.5 ml of the topical doxycycline suspension daily for a week at night. […] undergoes this treatment once every 4-6 months.

[2] = tested on: osteoarthritis of the left knee; assay: Example 2: human subject with osteoarthritis of the left knee; settings: patient history; once relieved pain for 3 months
Source text: The following in vivo study of a human subject diagnosed with osteoarthritis of the left knee.
A patient presented with complaints of left knee pain. The patient had been previously diagnosed with progressive osteoarthritis of the left knee. They had undergone two knee surgeries, but the pain came back within a few months. […] Their specialist said that the they were too young and too overweight for a full knee replacement surgery so they must rely on narcotic pain medications and hydrocortisone shots until they are a good candidate for the replacement surgery.
The patient then began the currently disclosed treatment course to alleviate the pain from their osteoarthritis. As already discussed, the currently disclosed treatment is a topical doxycycline hyclate suspension at a concentration of 400 mg/g. They applied it to the knee twice a day. Each dose was approximately 4 ml per knee spread topically over the knee. Preferably, an application covers the affected area with a thin layer of the suspension. One application was before bedtime and the other was in the morning before going to work. The patient has been using it every day for the past month.

## CC(C)Cc1ccc(C(C)C(=O)O)cc1 (stereo not shown) [ADVIL, ibuprofen]
[1]
  effect of previously attempted medications on the patient's symptoms: failed to address the patient's symptoms

## COc1cc(CNC(=O)CCCC/C=C/C(C)C)ccc1O [CAPSAICIN]
[1]
  effect of previously attempted medications on the patient's symptoms: failed to address the patient's symptoms

## NCC1(CC(=O)O)CCCCC1 [GABAPENTIN]
[1]
  effect of previously attempted medications on the patient's symptoms: failed to address the patient's symptoms

## CC(C)Cc1ccc(C(C)C(=O)O)cc1 (stereo not shown) [Ibuprofen]
Idiopathic neuropathy
  effect of previous medications on pain: did not help

## CCN(CC)CC(=O)Nc1c(C)cccc1C [LIDOCAINE]
[1]
  effect of previously attempted medications on the patient's symptoms: failed to address the patient's symptoms

## CC(C)Cc1ccc(C(C)C(=O)O)cc1 (stereo not shown) [MOTRIN, ibuprogen]
Multiple sclerosis
  effect of previously taken medications on pain: not as effective as they hoped

## CC(=O)Nc1ccc(O)cc1 [TYLENOL, acetaminophen]
osteoarthritis
  effect of previously tried medications on pain: did not help manage the pain
Multiple sclerosis
  effect of previously taken medications on pain: not as effective as they hoped
[1]
  effect of previously attempted medications on the patient's symptoms: failed to address the patient's symptoms

## C[C@]12CCC(=O)C=C1CC[C@@H]1[C@@H]2[C@@H](O)C[C@@]2(C)[C@H]1CC[C@]2(O)C(=O)CO [hydrocortisone]
[2]
  duration of pain relief after shots: 3 weeks
